Laboratory results from publication PMC9919699, “A Comprehensive Approach to Derivatization: Elemental Composition, Biochemical, and In Silico Studies of Metformin Derivatives Containing Copper and Zinc Complexes” (Molecules, 2023).
Read-outs that look alike come from different tables or passages of the source.

Columns and labels:
[1] = system: α-glucosidase; test: α-glucosidase enzyme inhibition assay (starch substrate, anthrone reagent, 640 nm); format: biochemical
Method: The α-glucosidase-inhibitory activity of all derivatives of metformin was tested using the method previously described. Three test tubes were marked as test (T), blank (B), and control (C). Then, 200 µL of substrate (starch) and enzyme (α-glucosidase) was added to test tubes T and C. The contents were mixed well, and then the test tubes were incubated at 37 °C for 30 min. After incubation, trichloroacetic acid was added to all test tubes, which were then centrifuged for 10 min. Free glucose was available after the reaction with anthrone reagent (1.5 mL). The contents in the test tubes were boiled for 15 min, and the absorbance was read at a wavelength at 640 nm. The percentage inhibition was calculated using the following formula:Percentage inhibition = OD of control − OD of test tube/OD of control × 100.

[2] = system: α-amylase; test: α-amylase enzyme inhibition assay (starch, dinitro-salicylic acid, 540 nm); format: biochemical
Method: All derivatives of metformin were analyzed for serum amylase inhibitory activity using the Yukihoko Hara method. Three test tubes were labeled as blank (B), test (T), and control (C). Then, 2.5 mL of phosphate buffer (pH 6.8) was added to each test tube. Next, 1 mL of starch and 1 mL of 2 N sodium chloride solution were added to each test tube. The test tubes were incubated at 37 °C for 10 min. After incubation, 0.5 mL of derivatives was added to test tube T, followed by 0.2 mL of enzyme (α-amylase). All contents were mixed well, and then the tube was incubated at 37 °C for 10 min. In the control test tube, normal saline (2 N), starch solution (1 mL), and enzyme solution (0.2 mL) were added before incubating at 37 °C for 10 min. In the blank test tube, only 5.7 mL of distilled water was added. Dinitro-salicylic acid (0.2 mL) was added to all test tubes. The contents were mixed well, and the test tubes were kept in a boiling water bath for 15 min. The intensity of reddish orange was read at 540 nm. The percentage inhibitory action of serum amylase was calculated using the following formula:Percentage inhibition = OD of control − OD of test tube/OD of control × 100.

[3] = 250 µg/mL, Table 6 (MZn series)
[4] = 500 µg/mL, Table 6 (MZn series)
[5] = 1000 µg/mL, Table 6 (MZn series)
[6] = 250 µg/mL, Table 9 (MZn series)
[7] = 500 µg/mL, Table 9 (MZn series)
[8] = 1000 µg/mL, Table 9 (MZn series)
[9] = Table 9 (MZn series), read-out: IC50
[10] = 250 µg/mL, Table 4 (Met series)
[11] = 500 µg/mL, Table 4 (Met series)
[12] = 1000 µg/mL, Table 4 (Met series)
[13] = 250 µg/mL, Table 7 (Met series)
[14] = 500 µg/mL, Table 7 (Met series)
[15] = 1000 µg/mL, Table 7 (Met series)
[16] = Table 7 (Met series), read-out: IC50
[17] = Table 6 (MZn series), read-out: IC50
[18] = 250 µg/mL, Table 5 (MCu series)
[19] = 500 µg/mL, Table 5 (MCu series)
[20] = 1000 µg/mL, Table 5 (MCu series)
[21] = Table 5 (MCu series), read-out: IC50
[22] = 250 µg/mL, Table 8 (MCu series)
[23] = 500 µg/mL, Table 8 (MCu series)
[24] = 1000 µg/mL, Table 8 (MCu series)
[25] = Table 8 (MCu series), read-out: IC50

CN(C)C(=N)NC(=N)N=C(c1ccccc1)C(O)c1ccccc1.CN(C)C(=N)NC(=N)N=C(c1ccccc1)C(O)c1ccccc1.O.O.O.O.O.O=S(=O)([O-])[O-].[Zn+2] (centres unmarked) [MZn9]
% Inhibition [1, 3]: 28.64 ± 0.25%
% Inhibition [1, 4]: 37.51 ± 0.25%
% Inhibition [1, 5]: 45.37 ± 0.20%
% Inhibition [2, 6]: 15.64 ± 0.28%
% Inhibition [2, 7]: 38.64 ± 0.40%
% Inhibition [2, 8]: 59.70 ± 0.46%
IC50 [2, 9]: 700 µM

CC(C)=NC(=N)NC(=N)N(C)C [Met5, N,N-dimethyl-N′-(propan-2-ylidene)triimidodicarbonic diamide]
% Inhibition [1, 10]: 22.85 ± 0.15%
% Inhibition [1, 11]: 39.43 ± 0.19%
% Inhibition [1, 12]: 53.44 ± 0.15%
IC50 ([1]; Table 4 (Met series), read-out: IC50): 2000 µM
% Inhibition [2, 13]: 15.61 ± 0.20%
% Inhibition [2, 14]: 39.48 ± 0.32%
% Inhibition [2, 15]: 63.47 ± 0.23%
IC50 [2, 16]: 740 µM

CN(C)C(=N)NC(=N)N=Cc1ccccc1O.CN(C)C(=N)NC(=N)N=Cc1ccccc1O.O.O.O.O.O.O=S(=O)([O-])[O-].[Zn+2] [MZn2]
% Inhibition [1, 3]: 43.55 ± 0.20%
% Inhibition [1, 4]: 57.61 ± 0.15%
% Inhibition [1, 5]: 71.37 ± 0.30%
IC50 [1, 17]: 600 µM
IC50 [2]: 484.9 µg/mL
% Inhibition [2, 6]: 34.46 ± 0.23%
% Inhibition [2, 7]: 69.32 ± 0.46%
% Inhibition [2, 8]: 86.58 ± 0.40%
IC50 [2, 9]: 670 µM

CC(C)=NC(=N)NC(=N)N(C)C.CC(C)=NC(=N)NC(=N)N(C)C.O.O.O.O.O.O=S(=O)([O-])[O-].[Cu+2] [MCu5]
% Inhibition [1, 18]: 21.73 ± 0.12%
% Inhibition [1, 19]: 38.21 ± 0.18%
% Inhibition [1, 20]: 56.45 ± 0.20%
IC50 [1, 21]: 460 µM
% Inhibition [2, 22]: 12.46 ± 0.23%
% Inhibition [2, 23]: 38.44 ± 0.40%
% Inhibition [2, 24]: 61.38 ± 0.23%
IC50 [2, 25]: 320 µM

CN(C)C(=N)NC(=N)N=CC=Cc1ccccc1.CN(C)C(=N)NC(=N)N=CC=Cc1ccccc1.O.O.O.O.O.O=S(=O)([O-])[O-].[Cu+2] [MCu3]
% Inhibition [1, 18]: 29.74 ± 0.08%
% Inhibition [1, 19]: 49.26 ± 0.17%
% Inhibition [1, 20]: 78.23 ± 0.17%
IC50 [1, 21]: 570 µM
% Inhibition [2, 22]: 25.41 ± 0.23%
% Inhibition [2, 23]: 38.37 ± 0.40%
% Inhibition [2, 24]: 69.40 ± 0.23%
IC50 [2, 25]: 790 µM

COc1cc(C=NC(=N)NC(=N)N(C)C)ccc1O.COc1cc(C=NC(=N)NC(=N)N(C)C)ccc1O.O.O.O.O.O.O=S(=O)([O-])[O-].[Zn+2] [MZn8]
IC50 [1]: 511.4 µg/mL
% Inhibition [1, 3]: 49.24 ± 0.21%
% Inhibition [1, 4]: 70.37 ± 0.25%
% Inhibition [1, 5]: 81.54 ± 0.26%
IC50 [1, 17]: 650 µM
% Inhibition [2, 6]: 37.46 ± 0.23%
% Inhibition [2, 7]: 68.50 ± 0.40%
% Inhibition [2, 8]: 83.52 ± 0.40%
IC50 [2, 9]: 900 µM

C=NC(=N)NC(=N)N(C)C [Met4, N,N-dimethyl-N′-methylidenetriimidodicarbonic diamide]
% Inhibition [1, 10]: 17.49 ± 0.29%
% Inhibition [1, 11]: 25.77 ± 0.35%
% Inhibition [1, 12]: 43.72 ± 0.26%
% Inhibition [2, 13]: 15.48 ± 0.15%
% Inhibition [2, 14]: 37.65 ± 0.19%
% Inhibition [2, 15]: 55.48 ± 0.23%
IC50 [2, 16]: 700 µM

CC(C)=NC(=N)NC(=N)N(C)C.CC(C)=NC(=N)NC(=N)N(C)C.O.O.O.O.O.O=S(=O)([O-])[O-].[Zn+2] [MZn5]
% Inhibition [1, 3]: 32.86 ± 0.15%
% Inhibition [1, 4]: 38.87 ± 0.10%
% Inhibition [1, 5]: 49.46 ± 0.20%
% Inhibition [2, 6]: 15.44 ± 0.28%
% Inhibition [2, 7]: 37.60 ± 0.28%
% Inhibition [2, 8]: 58.35 ± 0.17%
IC50 [2, 9]: 560 µM

CC(=NC(=N)NC(=N)N(C)C)c1ccccc1.CC(=NC(=N)NC(=N)N(C)C)c1ccccc1.O.O.O.O.O.O=S(=O)([O-])[O-].[Cu+2] [MCu6]
% Inhibition [1, 18]: 10.74 ± 0.11%
% Inhibition [1, 19]: 24.44 ± 0.15%
% Inhibition [1, 20]: 53.44 ± 0.33%
IC50 [1, 21]: 290 µM
% Inhibition [2, 22]: 23.34 ± 0.51%
% Inhibition [2, 23]: 45.45 ± 0.28%
% Inhibition [2, 24]: 64.65 ± 0.28%
IC50 [2, 25]: 320 µM

CN(C)C(=N)NC(=N)N=C(c1ccccc1)c1ccccc1.CN(C)C(=N)NC(=N)N=C(c1ccccc1)c1ccccc1.O.O.O.O.O.O=S(=O)([O-])[O-].[Zn+2] [MZn7]
% Inhibition [1, 3]: 33.67 ± 67%
% Inhibition [1, 4]: 37.61 ± 0.20%
% Inhibition [1, 5]: 42.54 ± 0.26%
% Inhibition [2, 6]: 24.32 ± 0.51%
% Inhibition [2, 7]: 44.52 ± 0.34%
% Inhibition [2, 8]: 73.43 ± 0.28%
IC50 [2, 9]: 250 µM

CN(C)C(=N)NC(=N)N=C(c1ccccc1)C(O)c1ccccc1.CN(C)C(=N)NC(=N)N=C(c1ccccc1)C(O)c1ccccc1.O.O.O.O.O.O=S(=O)([O-])[O-].[Cu+2] (centres unmarked) [MCu9]
% Inhibition [1, 18]: 15.23 ± 0.12%
% Inhibition [1, 19]: 28.37 ± 0.20%
% Inhibition [1, 20]: 49.49 ± 0.25%
IC50 [1, 21]: 200 µM
% Inhibition [2, 22]: 13.46 ± 0.23%
% Inhibition [2, 23]: 34.66 ± 0.40%
% Inhibition [2, 24]: 67.48 ± 0.40%
IC50 [2, 25]: 130 µM

C[C@H]1O[C@H](O[C@H]2[C@H](O)[C@@H](O)[C@@H](O[C@H]3[C@H](O)[C@@H](O)C(O)O[C@@H]3CO)O[C@@H]2CO)[C@H](O)[C@@H](O)[C@@H]1N[C@H]1C=C(CO)[C@@H](O)[C@H](O)[C@H]1O (some centres unmarked) [Acarbose, reference compound]
% Inhibition [1, 10]: 41.84 ± 0.08%
% Inhibition [1, 18]: 42.65 ± 0.09%
% Inhibition [1, 3]: 54.12 ± 0.09%
% Inhibition [1, 11]: 66.79 ± 0.09%
% Inhibition [1, 19]: 62.41 ± 0.28%
% Inhibition [1, 4]: 74.52 ± 0.19%
% Inhibition [1, 12]: 89.01 ± 0.01%
% Inhibition [1, 20]: 91.83 ± 0.18%
% Inhibition [1, 5]: 98.60 ± 0.10%
% Inhibition [2, 13]: 49.65 ± 0.15%
% Inhibition [2, 22]: 42.73 ± 0.46%
% Inhibition [2, 6]: 49.59 ± 0.34%
% Inhibition [2, 14]: 72.33 ± 0.20%
% Inhibition [2, 23]: 67.52 ± 0.34%
% Inhibition [2, 7]: 72.73 ± 0.46%
% Inhibition [2, 15]: 91.58 ± 0.36%
% Inhibition [2, 24]: 92.73 ± 0.46%
% Inhibition [2, 8]: 91.71 ± 0.46%

CN(C)C(=N)NC(=N)N=CC=Cc1ccccc1.CN(C)C(=N)NC(=N)N=CC=Cc1ccccc1.O.O.O.O.O.O=S(=O)([O-])[O-].[Zn+2] [MZn3]
% Inhibition [1, 3]: 50.22 ± 0.15%
% Inhibition [1, 4]: 58.18 ± 0.21%
% Inhibition [1, 5]: 68.63 ± 0.20%
IC50 [1, 17]: 540 µM
% Inhibition [2, 6]: 13.59 ± 0.34%
% Inhibition [2, 7]: 41.55 ± 0.34%
% Inhibition [2, 8]: 78.57 ± 0.28%
IC50 [2, 9]: 780 µM

CC(=NC(=N)NC(=N)N(C)C)c1ccccc1.CC(=NC(=N)NC(=N)N(C)C)c1ccccc1.O.O.O.O.O.O=S(=O)([O-])[O-].[Zn+2] [MZn6]
% Inhibition [1, 3]: 36.67 ± 0.26%
% Inhibition [1, 4]: 41.26 ± 0.32%
% Inhibition [1, 5]: 44.51 ± 0.19%
% Inhibition [2, 6]: 18.76 ± 0.17%
% Inhibition [2, 7]: 33.29 ± 0.46%
% Inhibition [2, 8]: 51.47 ± 0.28%
IC50 [2, 9]: 540 µM
